# Publication PMC10610424, “Enhancing Solubility and Dissolution Rate of Antifungal Drug Ketoconazole through Crystal Engineering” (Pharmaceuticals, 2023)
# How the values were obtained:
# [1] = cited from earlier work
# [2] = Equilibrium solubility, shake flask method, HPLC of KTZ; assay type: physicochemical; conditions: for Equilibrium solubility, concentration of KTZ / solubility thermodynamic at 48 h: 37.0 °C, mean ± SD, triplicate; for Equilibrium solubility, concentration of KTZ / Solid-form stability of residual solids after equilibrium solubility experiments (PXRD) / solubility thermodynamic at 48 h: 48 h; for Solid-form stability of residual solids after equilibrium solubility experiments (PXRD): ultrapure water and pH 4.5 acetate buffer
# Description: The solutions were stirred at 160 strokes min^−1 with a magnetic bar at 37 °C for 48 h to reach equilibrium. The suspension was filtered through a 0.22 μm nylon filter membrane, diluted appropriately, and analyzed by subsequent high-performance liquid chromatography (HPLC) analysis. […] An Agilent Eclipse XDB−C18 (250 mm × 4.6 mm, 5 μm) column was used throughout the process of elution with the column temperature set to 30 °C. The mobile phase, consisting of methanol and water (80/20, v/v), was run at 1.0 mL min^−1 with a detection wavelength of 254 nm. The injection sample volume was 10 μL. The measurements were performed based on an external standard method. All the solubility experiments were performed in triplicate and the results are expressed as the mean value ± standard deviation (SD). Residual solids were collected after the equilibrium solubility experiment and characterized by PXRD for solid-form stability examinations.
# [3] = Powder dissolution experiments, basket method; assay type: physicochemical; conditions: pure water and pH 4.5 acetate buffer, 37 °C, up to 480 min
# Description: The powder dissolution experiments were performed via a dissolution apparatus (RC12AD dissolution tester, TDTF Technology Co., Ltd., Tianjin, China) by a basket method in pure water and pH 4.5 acetate buffer solution, respectively, with a rotation speed of 100 rpm under a temperature of 37 ± 0.2 °C [67]. […] At regular time intervals of 5, 15, 30, 60, 90, 120, 180, 240, 360, and 480 min, 1 mL of solution was extracted, and the withdrawn solutions were filtered using a 0.45 μm syringe tip filter. […] All the dissolution experiments were performed in triplicate. After the dissolution experiments, residual solids were collected, air-dried, and confirmed by PXRD.
# pKa values and ΔpKa rule = assay type: physicochemical
# Source text: To understand the crystal nature of the obtained solid forms (a salt or a cocrystal), three commonly used principles have been summarized, such as the ΔpKa rule, the position of the hydroxyl-H atom retrieved from SCXRD data, and the structural characteristics of interacting groups. The pKa values of the starting functional groups, the ΔpKa values between the two considered groups, the geometric parameters of the C−O bond lengths of the carboxylic/carboxylate group, and the endocyclic C−N−C bond angle are provided in Table 2. Firstly, the ΔpKa rule has long been used for the prediction of salt or cocrystal formation. It is generally accepted that when ΔpKa is >4, proton transfer is expected to occur and salt is anticipated to form; when ΔpKa < −1, on the other hand, the formation of non-ionized cocrystals prevails over that of salts. However, if the ΔpKa values are located in the region of −1 to 4, it is impossible to provide a prediction of a salt or a cocrystal. […] Secondly, the residual density map provided by the SXRD data (Figure S3) could be used to distinguish the location of the H atom and, thus, the cocrystal, salt, and salt–cocrystal continuum could be distinguished. […] Thirdly, the ionization state of the structures was also supported by the difference in the C−O bond lengths in a carboxylic/carboxylate group and the bond angle of C24−N4−C25 in the imidazole ring. In a neutral carboxylic group, the length of C−O is longer than that of C=O, while in the carboxylate anion, there is nearly no difference between the bond lengths of C−O and C−O^− [47]. The endocyclic C−N−C bond angle of the cationic N-heterocycle is higher than that of the neutral state.
# [4] = value of the coformer (CCF) of the crystal named in the line; source not given; cited from earlier work
# [5] = Accelerated stability test, PXRD; assay type: physicochemical; conditions: high temperature 60 °C, high humidity 90%, illumination 4500 lx; 0, 5, 10 days
# Description: Approximately 50 mg of powdered samples were stored under the three test conditions and measured at regular time intervals (0, 5, and 10 days) by PXRD [68].
Compound,Solubility in ultrapure water ([1]; ultrapure water),Solubility of ketoconazole in distilled water ([2]; distilled water (abstract)) [µg/mL],"Equilibrium solubility, concentration of KTZ ([2]; pH 4.5 acetate buffer) [µg/mL]",Solid-form stability of residual solids after equilibrium solubility experiments (PXRD) ([2]; 37 °C),"Equilibrium solubility, concentration of KTZ ([2]; ultrapure water) [µg/mL]",Solid-form stability of residual solids after powder dissolution experiments (PXRD) [3],ΔpKa Values between CCF and KTZ (pKa values and ΔpKa rule),pKa Values of CCFs [4],Solubility increase in water concerning ketoconazole ([2]; water) [fold],"solubility at 48 h ([2]; 37 °C, thermodynamic from solid, distilled water (abstract), read-out: Solubility of ketoconazole in distilled water) [µg/mL]","solubility thermodynamic at 48 h ([2]; aqueous buffer, thermodynamic from solid, pH 4.5 acetate buffer) [µg/mL]","solubility thermodynamic at 48 h ([2]; thermodynamic from solid, ultrapure water) [µg/mL]",Stability under accelerated storage conditions (PXRD) [5],"Solubility in water ([1]; water, 25 °C) [µg/mL]"
CC(=O)N1CCN(c2ccc(OCC3COC(Cn4ccnc4)(c4ccc(Cl)cc4Cl)O3)cc2)CC1.O=C(O)c1ccc(O)c(O)c1 (racemic) [KTZ-PCA-I],approximately 500 μg mL^−1,–,–,–,–,–,–,–,–,–,–,–,–,–
CC(=O)N1CCN(c2ccc(OCC3COC(Cn4ccnc4)(c4ccc(Cl)cc4Cl)O3)cc2)CC1.O=C(O)c1c(O)cccc1O (racemic) [KTZ−26DHB],–,139.1,263.76 ± 8.51,remained stable and nondissociable,139.13 ± 14.25,remained stable,3.9,1.6,–,–,–,–,–,–
CC(=O)N1CCN(c2ccc(OCC3COC(Cn4ccnc4)(c4ccc(Cl)cc4Cl)O3)cc2)CC1.O=C(O)c1cc([N+](=O)[O-])cc([N+](=O)[O-])c1 (racemic) [KTZ−35DNB],–,191.7,273.66 ± 9.87,remained stable and nondissociable,191.67 ± 15.95,remained stable,3.7,2.8,–,–,–,–,–,–
CC(=O)N1CCN(c2ccc(OCC3COC(Cn4ccnc4)(c4ccc(Cl)cc4Cl)O3)cc2)CC1.O=C(O)CCCC(=O)O (racemic) [KTZ−GTA],–,2165.6,339.87 ± 28.33,–,2165.56 ± 251.34,–,2.2,4.3,1800,–,–,–,–,–
CC(=O)N1CCN(c2ccc(OCC3COC(Cn4ccnc4)(c4ccc(Cl)cc4Cl)O3)cc2)CC1.O=C(O)c1ccc(O)c(O)c1 (racemic) [KTZ−PCA-II],–,386.3,308.06 ± 33.95,–,386.34 ± 89.30,–,2.0,4.5,–,–,–,–,–,–
"CC(=O)N1CCN(c2ccc(OCC3COC(Cn4ccnc4)(c4ccc(Cl)cc4Cl)O3)cc2)CC1 (stereo not drawn) [KTZ, cis-1-acetyl-4-[4-[[2-(2,4-dichlorophenyl)-2-(1-H-imidazole-1-ylmethyl)-1,3-dioxolan-4-yl]methoxy]phenyl] piperazine, reference compound]",–,–,–,–,–,–,–,–,–,1.2,239 ± 4.69,1.2 ± 0.27,stable,0.087
